We go through 3 molecules from ChEMBL document CHEMBL1132012, “Synthesis and sulfatase inhibitory activities of (E)- and (Z)-4-hydroxytamoxifen sulfamates” (Bioorg Med Chem Lett, 1999).

In one data set the target is T1, Steryl-sulfatase (Rattus norvegicus, UniProt P15589).
T1 sequence (P15589 whole entry): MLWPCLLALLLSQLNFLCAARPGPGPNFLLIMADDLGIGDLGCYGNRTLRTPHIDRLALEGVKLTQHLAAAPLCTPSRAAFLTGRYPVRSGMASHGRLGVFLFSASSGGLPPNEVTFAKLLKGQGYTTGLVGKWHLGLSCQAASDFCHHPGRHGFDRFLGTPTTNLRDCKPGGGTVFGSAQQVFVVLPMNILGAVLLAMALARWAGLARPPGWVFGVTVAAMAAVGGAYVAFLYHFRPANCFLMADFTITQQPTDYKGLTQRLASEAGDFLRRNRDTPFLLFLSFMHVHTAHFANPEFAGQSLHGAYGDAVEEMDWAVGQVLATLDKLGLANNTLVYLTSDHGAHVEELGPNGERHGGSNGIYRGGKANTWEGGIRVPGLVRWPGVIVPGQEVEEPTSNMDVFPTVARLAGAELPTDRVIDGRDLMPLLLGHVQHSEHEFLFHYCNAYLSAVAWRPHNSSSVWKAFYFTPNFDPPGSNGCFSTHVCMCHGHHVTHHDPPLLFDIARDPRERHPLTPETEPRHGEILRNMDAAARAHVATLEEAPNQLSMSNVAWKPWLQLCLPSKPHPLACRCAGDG
As to the kind of experiment: (§1) In vitro binding affinity against estrone sulfatase in rat liver microsomes. More on the design: species or system Microsome.

Substrate in data set [1]: C[C@]12CC[C@@H]3c4ccc(OS(=O)(=O)O)cc4CC[C@H]3[C@@H]1CCC2=O
Described as §1. Conditions: Microsome.

Some results are limits rather than exact numbers.

On Steryl-sulfatase, `CC/C(=C(/c1ccc(OCCN(C)C)cc1)c1ccc(OS(N)(=O)=O)cc1)c1ccccc1` displayed an inhibition constant (Ki) of 35.9 µM.

As for `CC/C(=C(\c1ccc(OCCN(C)C)cc1)c1ccc(OS(N)(=O)=O)cc1)c1ccccc1`, the Ki at Steryl-sulfatase was > 500 µM.

B1: Steryl-sulfatase (Rattus norvegicus), P15589 (protein)
chain: MLWPCLLALLLSQLNFLCAARPGPGPNFLLIMADDLGIGDLGCYGNRTLRTPHIDRLALEGVKLTQHLAAAPLCTPSRAAFLTGRYPVRSGMASHGRLGVFLFSASSGGLPPNEVTFAKLLKGQGYTTGLVGKWHLGLSCQAASDFCHHPGRHGFDRFLGTPTTNLRDCKPGGGTVFGSAQQVFVVLPMNILGAVLLAMALARWAGLARPPGWVFGVTVAAMAAVGGAYVAFLYHFRPANCFLMADFTITQQPTDYKGLTQRLASEAGDFLRRNRDTPFLLFLSFMHVHTAHFANPEFAGQSLHGAYGDAVEEMDWAVGQVLATLDKLGLANNTLVYLTSDHGAHVEELGPNGERHGGSNGIYRGGKANTWEGGIRVPGLVRWPGVIVPGQEVEEPTSNMDVFPTVARLAGAELPTDRVIDGRDLMPLLLGHVQHSEHEFLFHYCNAYLSAVAWRPHNSSSVWKAFYFTPNFDPPGSNGCFSTHVCMCHGHHVTHHDPPLLFDIARDPRERHPLTPETEPRHGEILRNMDAAARAHVATLEEAPNQLSMSNVAWKPWLQLCLPSKPHPLACRCAGDG
Turning to B1, the Michaelis-Menten constant (Km) in data set [1] was found to be 90.2 µM.
